One block for each compound: values may come before it. The source made the active and inactive calls. No cut-off for these calls is given here.
Legend:
[1] = molecular target: ALK tyrosine kinase receptor (Homo sapiens, UniProt Q9UM73); assay: Inhibition of recombinant human wild type ALK using tyrosine kinase substrate-biotin after 30 mins by HTRF assay
NCI-H2228 [2] = assay: Antiproliferative activity against human NCI-H2228 cells after 96 hrs by CellTiter-Glo assay; type: functional, cell-based; conditions: NCI-H2228, 96 h
[3] = Antiproliferative activity against human KARPAS299 cells after 96 hrs by CellTiter-Glo assay; type: functional, cell-based; conditions: KARPAS-299, 96 h
[4] = molecular target: ALK tyrosine kinase receptor (Homo sapiens, UniProt Q9UM73, L1196M); assay: Inhibition of recombinant human ALK L1196M mutant using tyrosine kinase substrate-biotin after 30 mins by HTRF assay
ALK tyrosine kinase receptor (Homo sapiens, UniProt Q9UM73, L1196M), sequence (Q9UM73 19-1620 L1196M limits assumed): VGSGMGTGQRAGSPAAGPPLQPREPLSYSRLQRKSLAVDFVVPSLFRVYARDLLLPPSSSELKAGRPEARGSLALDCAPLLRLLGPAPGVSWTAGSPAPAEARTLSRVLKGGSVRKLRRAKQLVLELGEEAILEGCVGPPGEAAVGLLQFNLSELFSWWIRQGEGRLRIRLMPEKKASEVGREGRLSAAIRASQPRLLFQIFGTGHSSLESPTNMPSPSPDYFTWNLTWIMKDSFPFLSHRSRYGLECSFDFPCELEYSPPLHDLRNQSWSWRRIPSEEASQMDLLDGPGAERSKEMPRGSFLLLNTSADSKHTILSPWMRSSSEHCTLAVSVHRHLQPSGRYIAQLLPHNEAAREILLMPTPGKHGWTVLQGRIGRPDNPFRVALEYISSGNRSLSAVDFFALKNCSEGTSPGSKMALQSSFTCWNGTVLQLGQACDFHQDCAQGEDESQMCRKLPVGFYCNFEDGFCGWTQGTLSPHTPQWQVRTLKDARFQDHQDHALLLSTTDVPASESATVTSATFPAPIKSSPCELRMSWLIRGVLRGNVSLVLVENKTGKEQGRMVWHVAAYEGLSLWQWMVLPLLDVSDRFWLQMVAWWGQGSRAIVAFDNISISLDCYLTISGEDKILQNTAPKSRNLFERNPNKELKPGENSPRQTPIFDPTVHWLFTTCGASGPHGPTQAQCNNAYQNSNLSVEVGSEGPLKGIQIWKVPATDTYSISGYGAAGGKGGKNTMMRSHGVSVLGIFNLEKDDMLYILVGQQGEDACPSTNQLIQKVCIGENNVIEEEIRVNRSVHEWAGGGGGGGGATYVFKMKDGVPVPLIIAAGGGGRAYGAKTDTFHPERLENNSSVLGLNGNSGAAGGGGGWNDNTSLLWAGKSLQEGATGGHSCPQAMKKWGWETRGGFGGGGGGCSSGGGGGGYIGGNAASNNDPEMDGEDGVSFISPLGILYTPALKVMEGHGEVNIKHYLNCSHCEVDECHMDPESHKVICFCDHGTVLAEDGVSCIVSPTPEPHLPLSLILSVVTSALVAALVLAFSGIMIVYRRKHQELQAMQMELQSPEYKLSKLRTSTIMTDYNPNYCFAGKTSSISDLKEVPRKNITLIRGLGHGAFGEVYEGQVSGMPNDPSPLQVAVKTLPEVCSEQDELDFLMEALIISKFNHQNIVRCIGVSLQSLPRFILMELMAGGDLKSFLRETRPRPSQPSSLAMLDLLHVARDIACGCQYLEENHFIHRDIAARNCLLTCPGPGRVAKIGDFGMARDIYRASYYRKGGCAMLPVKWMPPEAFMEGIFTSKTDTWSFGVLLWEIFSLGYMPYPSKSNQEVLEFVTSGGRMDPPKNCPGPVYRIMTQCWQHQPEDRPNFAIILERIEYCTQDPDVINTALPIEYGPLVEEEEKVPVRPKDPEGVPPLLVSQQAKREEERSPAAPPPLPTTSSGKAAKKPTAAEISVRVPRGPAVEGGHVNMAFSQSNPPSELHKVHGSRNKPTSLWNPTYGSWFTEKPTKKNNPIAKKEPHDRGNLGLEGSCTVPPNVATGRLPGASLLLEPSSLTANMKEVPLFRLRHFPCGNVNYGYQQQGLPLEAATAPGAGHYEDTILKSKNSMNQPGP

[5] = Ratio of IC50 for human ERG to IC50 for human NCI-H2228 cells
[6] = Volume of distribution in Sprague-Dawley rat at 1 mg/kg, iv; type: ADME, organism-based; conditions: in vivo
[7] = Tmax in Sprague-Dawley rat at 5 mg/kg, po; type: ADME, organism-based; conditions: in vivo
[8] = Cmax in Sprague-Dawley rat at 5 mg/kg, po; type: ADME, organism-based; parameters: dose 5 mg/kg, route oral; conditions: in vivo
[9] = AUC(0 to infinity) in Balb/c nude mouse at 5 mg/kg, po; type: ADME, organism-based; parameters: dose 5 mg/kg, time infinity, route oral; conditions: in vivo
NCI-H2228 [10] = conditions: Homo sapiens
Description: Antitumor activity against human NCI-H2228 cells xenografted in Balb/c nude mouse assessed as tumor growth inhibition at 30 mg/kg, po qd administered for two weeks measured after 1 week during compound dosing

[11] = AUC(0 to infinity) in Sprague-Dawley rat at 5 mg/kg, po; type: ADME, organism-based; parameters: dose 5 mg/kg, route oral, time infinity; conditions: in vivo
[12] = AUC(0 to infinity) in Balb/c nude mouse at 1 mg/kg, iv; type: ADME, organism-based; parameters: dose 1 mg/kg, route intravenous, time infinity; conditions: in vivo
[13] = Cmax in Beagle dog at 3 mg/kg, po; type: ADME, organism-based, Canis lupus familiaris; parameters: dose 3 mg/kg, route oral; conditions: in vivo
[14] = AUC(0 to infinity) in Beagle dog at 3 mg/kg, po; type: ADME, organism-based, Canis lupus familiaris; parameters: dose 3 mg/kg, route oral, time infinity; conditions: in vivo
[15] = Cmax in Balb/c nude mouse at 5 mg/kg, po; type: ADME, organism-based; parameters: dose 5 mg/kg, route oral; conditions: in vivo
Mus musculus [16] = assay: In vivo inhibition of ALK in human KARPAS299 cells xenografted in mouse assessed as suppression of STAT3 phosphorylation at 20 mg/kg measured after 8 hrs; type: functional; conditions: KARPAS-299, 8 h
NCI-H2228 [17] = assay: Antitumor activity against human NCI-H2228 cells xenografted in Balb/c nude mouse assessed as tumor growth inhibition at 30 mg/kg, po qd administered for two weeks measured on day 14 post last dose; type: functional; conditions: 336 h, read-out: TGI
NCI-H2228 [18] = conditions: Homo sapiens; remark: listed apart in the source
Description: Antitumor activity against human NCI-H2228 cells xenografted in Balb/c nude mouse assessed as tumor growth inhibition at 10 mg/kg, po qd administered for two weeks

[19] = Oral bioavailability in Sprague-Dawley rat at 5 mg/kg; type: ADME, organism-based; conditions: in vivo
[20] = Clearance in Balb/c nude mouse at 1 mg/kg, iv; type: ADME, organism-based; conditions: in vivo
[21] = Half life in Beagle dog at 1 mg/kg, iv; type: ADME, organism-based, Canis lupus familiaris; conditions: in vivo
[22] = Half life in Sprague-Dawley rat at 1 mg/kg, iv; type: ADME, organism-based; conditions: in vivo
NCI-H2228 [23] = assay: Antitumor activity against human NCI-H2228 cells xenografted in Balb/c nude mouse assessed as tumor growth inhibition at 3 mg/kg, po qd administered for two weeks measured on day 14 post last dose; type: functional; conditions: 336 h, read-out: TGI
[24] = Tmax in Beagle dog at 3 mg/kg, po; type: ADME, organism-based, Canis lupus familiaris; conditions: in vivo
[25] = Oral bioavailability in Beagle dog at 3 mg/kg; type: ADME, organism-based, Canis lupus familiaris; conditions: in vivo
[26] = Tmax in Balb/c nude mouse at 5 mg/kg, po; type: ADME, organism-based; conditions: in vivo
[27] = Volume of distribution in Balb/c nude mouse at 1 mg/kg, iv; type: ADME, organism-based; conditions: in vivo
Mus musculus [28] = assay: Toxicity in Balb/c nude mouse xenografted with human NCI-H2228 cells assessed as change in body weight at 30 mg/kg, po qd administered for two weeks; type: organism-based; conditions: in vivo
[29] = Oral bioavailability in Balb/c nude mouse at 5 mg/kg; type: ADME, organism-based; conditions: in vivo
[30] = AUC(0 to infinity) in Sprague-Dawley rat at 1 mg/kg, iv; type: ADME, organism-based; parameters: dose 1 mg/kg, route intravenous, time infinity; conditions: in vivo
NCI-H2228 [31] = conditions: Homo sapiens; remark: listed apart in the source
Description: Antitumor activity against human NCI-H2228 cells xenografted in Balb/c nude mouse assessed as tumor growth inhibition administered as po qd for two weeks

[32] = Half life in Balb/c nude mouse at 1 mg/kg, iv; type: ADME, organism-based; conditions: in vivo
[33] = Clearance in Beagle dog at 1 mg/kg, iv; type: ADME, organism-based, Canis lupus familiaris; conditions: in vivo
[34] = Volume of distribution in Beagle dog at 1 mg/kg, iv; type: ADME, organism-based, Canis lupus familiaris; conditions: in vivo
[35] = Clearance in Sprague-Dawley rat at 1 mg/kg, iv; type: ADME, organism-based; conditions: in vivo
[36] = AUC(0 to infinity) in Beagle dog at 1 mg/kg, iv; type: ADME, organism-based, Canis lupus familiaris; parameters: dose 1 mg/kg, time infinity, route intravenous; conditions: in vivo

ALK tyrosine kinase receptor (Homo sapiens, UniProt Q9UM73), sequence (Q9UM73 whole entry): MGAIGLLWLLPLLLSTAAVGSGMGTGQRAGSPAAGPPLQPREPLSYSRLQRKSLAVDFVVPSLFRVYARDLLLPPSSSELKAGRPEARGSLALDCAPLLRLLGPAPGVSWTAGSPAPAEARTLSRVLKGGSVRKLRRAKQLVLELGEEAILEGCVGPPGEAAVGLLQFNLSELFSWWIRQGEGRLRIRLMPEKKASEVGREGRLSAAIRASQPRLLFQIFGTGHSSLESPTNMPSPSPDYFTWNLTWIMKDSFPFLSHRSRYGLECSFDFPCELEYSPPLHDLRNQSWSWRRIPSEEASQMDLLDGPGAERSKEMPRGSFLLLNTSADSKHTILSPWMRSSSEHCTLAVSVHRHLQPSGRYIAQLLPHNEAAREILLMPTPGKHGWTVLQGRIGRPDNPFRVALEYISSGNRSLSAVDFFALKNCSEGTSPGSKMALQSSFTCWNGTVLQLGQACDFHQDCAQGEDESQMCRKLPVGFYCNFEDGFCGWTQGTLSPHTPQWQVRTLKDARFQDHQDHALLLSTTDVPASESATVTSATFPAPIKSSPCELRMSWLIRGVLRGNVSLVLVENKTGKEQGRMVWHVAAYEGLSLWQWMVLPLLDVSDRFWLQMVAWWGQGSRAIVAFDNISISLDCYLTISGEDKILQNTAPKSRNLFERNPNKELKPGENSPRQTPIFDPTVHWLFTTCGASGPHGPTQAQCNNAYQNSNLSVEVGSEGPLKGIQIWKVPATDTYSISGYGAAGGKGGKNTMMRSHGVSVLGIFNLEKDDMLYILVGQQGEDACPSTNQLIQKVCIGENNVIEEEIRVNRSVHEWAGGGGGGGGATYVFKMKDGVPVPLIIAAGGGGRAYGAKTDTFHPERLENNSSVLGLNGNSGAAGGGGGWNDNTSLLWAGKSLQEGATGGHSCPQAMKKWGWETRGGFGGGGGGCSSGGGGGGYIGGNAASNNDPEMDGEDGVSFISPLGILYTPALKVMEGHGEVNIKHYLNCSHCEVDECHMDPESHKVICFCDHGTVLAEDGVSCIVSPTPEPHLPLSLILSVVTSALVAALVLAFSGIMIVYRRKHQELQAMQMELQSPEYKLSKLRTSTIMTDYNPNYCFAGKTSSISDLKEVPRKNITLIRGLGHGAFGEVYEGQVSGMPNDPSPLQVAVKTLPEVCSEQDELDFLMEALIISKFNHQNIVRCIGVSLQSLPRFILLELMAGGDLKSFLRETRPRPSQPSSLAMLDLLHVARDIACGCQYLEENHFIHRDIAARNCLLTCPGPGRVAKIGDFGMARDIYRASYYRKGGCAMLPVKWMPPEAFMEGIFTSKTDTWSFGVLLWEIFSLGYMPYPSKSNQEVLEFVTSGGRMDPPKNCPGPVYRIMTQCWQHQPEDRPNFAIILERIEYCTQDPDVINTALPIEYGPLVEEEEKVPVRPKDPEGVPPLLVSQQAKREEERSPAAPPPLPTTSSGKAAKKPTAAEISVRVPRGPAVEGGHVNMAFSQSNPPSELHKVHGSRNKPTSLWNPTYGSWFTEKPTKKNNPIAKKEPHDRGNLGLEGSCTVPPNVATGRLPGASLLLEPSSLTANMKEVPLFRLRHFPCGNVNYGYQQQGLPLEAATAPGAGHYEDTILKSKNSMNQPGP

- IC50 [1]: 16 nM
- IC50 (NCI-H2228 [2]): 151 nM
- IC50 [4]: 20 nM
SMILES: Cc1cc(Nc2ncc(Cl)c(Nc3cn(C)nc3S(=O)(=O)C(C)C)n2)c(OC2CC2)cc1[C@H]1CC[C@H](NS(C)(=O)=O)CC1
- IC50 [3]: 18 nM

- IC50 [1]: 5 nM
- IC50 (NCI-H2228 [2]): 72 nM
- IC50 [4]: 10 nM
SMILES: Cc1cc(Nc2ncc(Cl)c(Nc3cn(C)nc3S(=O)(=O)C(C)C)n2)c(OC2CC2)cc1[C@H]1CC[C@@H](NC(C)C)CC1
- Ratio IC50 [5]: 15

- IC50 [1]: 12 nM
- IC50 (NCI-H2228 [2]): 661 nM
- IC50 [4]: 24 nM
SMILES: CNC(=O)c1nn(C)cc1Nc1nc(Nc2cc(C)c(C3CCN(C)CC3)cc2OC2CC2)ncc1Cl

- Vd [6]: 8.5 L/kg
- Tmax [7]: 6 h
- Cmax [8]: 220 ng/mL
- AUC(0-inf) [9]: 1700 ng·h/mL
- AUC(0-inf) [11]: 3200 ng·h/mL
- AUC(0-inf) [12]: 445 ng·h/mL
- Cmax [13]: 355 ng/mL
- AUC(0-inf) [14]: 3340 ng·h/mL
- Cmax [15]: 446 ng/mL
- bioavailability [19]: 85.3%
- clearance [20]: 37.5 mL/min/kg
- half-life [21]: 6.4 h
- half-life [22]: 4.5 h
- IC50 (NCI-H2228 [2]): 76 nM
- Tmax [24]: 1 h
- bioavailability [25]: 74%
- Tmax [26]: 0.5 h
- Vd [27]: 4.6 L/kg
- bioavailability [29]: 76.5%
- AUC(0-inf) [30]: 770 ng·h/mL
- half-life [32]: 1.4 h
- clearance [33]: 11.1 mL/min/kg
- Vd [34]: 6.1 L/kg
- clearance [35]: 21.9 mL/min/kg
- AUC(0-inf) [36]: 1500 ng·h/mL
SMILES: CC(=O)N1CCN([C@H]2CC[C@H](c3cc(OC4CC4)c(Nc4ncc(Cl)c(Nc5cn(C)nc5S(=O)(=O)C(C)C)n4)cc3C)CC2)CC1
- TGI (NCI-H2228 [10]): Active
- inhibition in vivo at 20 mg/kg (Mus musculus [16]): 79.2%
- inhibition in vivo at 30 mg/kg (NCI-H2228 [17]): 140%
- TGI (NCI-H2228 [18]): Active
- inhibition in vivo at 3 mg/kg (NCI-H2228 [23]): 50%
- Ratio IC50 [5]: 33
- Activity (Mus musculus [28]): Non-toxic
- IC50 [3]: 7 nM
- TGI (NCI-H2228 [31]): Dose-dependent effect

- IC50 [1]: 1 nM
- IC50 (NCI-H2228 [2]): 39 nM
SMILES: Cc1cc(Nc2ncc(Cl)c(Nc3cn(C)nc3S(=O)(=O)C(C)C)n2)c(OC2CC2)cc1C1CCN(C)CC1

- IC50 (NCI-H2228 [2]): 69 nM
SMILES: Cc1cc(Nc2ncc(C)c(Nc3cn(C)nc3S(=O)(=O)C(C)C)n2)c(OC2CC2)cc1C1CCN(C)CC1

- IC50 (NCI-H2228 [2]): 198 nM
SMILES: Cc1cc(Nc2ncc(Cl)c(Nc3cn(C)nc3S(=O)(=O)C(C)C)n2)c(OC(C)C)cc1C1CCNCC1
- IC50 [3]: 16 nM

- IC50 (NCI-H2228 [2]): 88 nM
SMILES: Cc1cc(Nc2ncc(Cl)c(Nc3cn(C)nc3S(=O)(=O)C(C)C)n2)c(OC2CC2)cc1[C@H]1CC[C@H](NC2CC2)CC1
- Ratio IC50 [5]: 23
- IC50 [3]: 9 nM

- IC50 [1]: 22 nM
- IC50 [4]: 28 nM
SMILES: Cc1cc(Nc2ncc(Cl)c(Nc3c[nH]nc3S(=O)(=O)C(C)C)n2)c(OC(C)C)cc1C1CCNCC1
- IC50 [3]: 1250 nM

- IC50 (NCI-H2228 [2]): 68 nM
SMILES: CCN(CC)[C@H]1CC[C@H](c2cc(OC3CC3)c(Nc3ncc(Cl)c(Nc4cn(C)nc4S(=O)(=O)C(C)C)n3)cc2C)CC1

- IC50 (NCI-H2228 [2]): 87 nM
SMILES: Cc1cc(Nc2ncc(C#N)c(Nc3cn(C)nc3S(=O)(=O)C(C)C)n2)c(OC2CC2)cc1C1CCN(C)CC1

- IC50 [1]: 3 nM
- IC50 (NCI-H2228 [2]): 490 nM
- IC50 [4]: 19 nM
SMILES: Cc1nc(Nc2nc(Nc3cc(C)c(C4CCN(C)CC4)cc3OC3CC3)ncc2Cl)c(S(=O)(=O)C(C)C)s1

- IC50 [1]: 8 nM
- IC50 (NCI-H2228 [2]): 116 nM
- IC50 [4]: 20 nM
SMILES: Cc1cc(Nc2ncc(Cl)c(Nc3cn(C)nc3S(=O)(=O)C(C)C)n2)c(OC2CC2)cc1[C@H]1CC[C@@H](NC2CC2)CC1
- Ratio IC50 [5]: 15

- IC50 (NCI-H2228 [2]): 272 nM
SMILES: Cc1cc(Nc2ncc(Cl)c(Nc3cn(C)nc3C#N)n2)c(OC2CC2)cc1C1CCN(C)CC1

- IC50 [1]: 129 nM
- IC50 [4]: 157 nM
SMILES: COc1ccc(Cn2cc(Nc3nc(Nc4cc(C)c(C5CCNCC5)cc4OC(C)C)ncc3Cl)c(S(=O)(=O)C(C)C)n2)cc1
- IC50 [3]: > 624 nM

- IC50 (NCI-H2228 [2]): 154 nM
SMILES: Cc1cc(Nc2ncc(Cl)c(Nc3cn(C)nc3S(=O)(=O)C(C)C)n2)c(OC2CC2)cc1[C@H]1CC[C@H](NC(=O)C2CC2)CC1
